In ChEMBL document CHEMBL5143523, “Construction and activity evaluation of novel benzodioxane derivatives as dual-target antifungal inhibitors” (Eur J Med Chem, 2022):
Converted amounts (≈) assume the structure as drawn.

Tests used:
Candida tropicalis = test: Antifungal activity against Candida tropicalis ATCC 1369 assessed as fungal growth inhibition measured after 72 hrs by CLSI protocol based liquid medium dilution method; assay type: functional
Nakaseomyces glabratus = test: Antifungal activity against Candida glabrata ATCC 0001 assessed as fungal growth inhibition measured after 72 hrs by CLSI protocol based liquid medium dilution method; assay type: functional
Aspergillus fumigatus = test: Antifungal activity against Aspergillus fumigatus KM8001 assessed as fungal growth inhibition measured after 72 hrs by CLSI protocol based liquid medium dilution method; assay type: functional
Candida albicans [1] = test: Antifungal activity against Candida albicans ATCC 10231 assessed as fungal growth inhibition measured after 72 hrs by CLSI protocol based liquid medium dilution method; assay type: functional
Pichia kudriavzevii = test: Antifungal activity against Candida krusei ATCC 6258 assessed as fungal growth inhibition measured after 72 hrs by CLSI protocol based liquid medium dilution method; assay type: functional
Candida albicans [2] = test: Antifungal activity against Candida albicans assessed as fungal growth inhibition measured after 72 hrs by CLSI protocol based liquid medium dilution method; assay type: functional
Candida albicans [3] = test: Antifungal activity against fluconazole resistant Candida albicans strain 904 assessed as fungal growth inhibition measured after 72 hrs by CLSI protocol based liquid medium dilution method; assay type: functional
Candida albicans [4] = test: Antifungal activity against fluconazole resistant Candida albicans strain 103 assessed as fungal growth inhibition measured after 72 hrs by CLSI protocol based liquid medium dilution method; assay type: functional
Candida albicans [5] = test: Antifungal activity against fluconazole resistant Candida albicans strain 901 assessed as fungal growth inhibition measured after 72 hrs by CLSI protocol based liquid medium dilution method; assay type: functional
Candida albicans [6] = test: Antifungal activity against fluconazole resistant Candida albicans strain 17# assessed as fungal growth inhibition measured after 72 hrs by CLSI protocol based liquid medium dilution method; assay type: functional
Candida albicans [7] = test: Antifungal activity against fluconazole resistant Candida albicans strain CaR assessed as fungal growth inhibition measured after 72 hrs by CLSI protocol based liquid medium dilution method; assay type: functional
Candida albicans [8] = test: Antifungal activity against Candida albicans ATCC SC5314 assessed as change in lanosterol level at 4 ug/ml incubated for 48 hrs by LC-MS analysis (reference value: 3.7%); assay type: functional; settings: dose 4 µg/ml
Candida albicans [9] = test: Antifungal activity against Candida albicans ATCC SC5314 assessed as change in eburicol level at 4 ug/ml incubated for 48 hrs by LC-MS analysis (reference value: 1.4%); assay type: functional; settings: dose 4 µg/ml
Candida albicans [10] = test: Induction of apoptosis in Candida albicans ATCC SC5314 cells assessed as necrotic cells at 8 ug/ml incubated for 72 hrs by Annexin V-FITC/PI staining based flow cytometry method (reference value: 3.76%); assay type: functional; settings: dose 8 µg/ml
Candida albicans [11] = test: Induction of apoptosis in Candida albicans ATCC SC5314 cells assessed as live cells at 8 ug/ml incubated for 72 hrs by Annexin V-FITC/PI staining based flow cytometry method (reference value: 95.56%); assay type: functional; settings: dose 8 µg/ml
Candida albicans [12] = test: Antifungal activity against Candida albicans ATCC SC5314 assessed as change in squalene level at 4 ug/ml incubated for 48 hrs by LC-MS analysis; assay type: functional; settings: dose 4 µg/ml
Candida albicans [13] = test: Antifungal activity against Candida albicans ATCC SC5314 assessed as decrease in ergosterol content at 4 ug/ml incubated for 48 hrs by LC-MS analysis (reference value: 90.6%); assay type: functional; set-up: scale not given: the % may be the effect or the level left; settings: dose 4 µg/ml
[14] = molecular target: Lanosterol 14-alpha demethylase (Candida albicans (strain SC5314 / ATCC MYA-2876) (Yeast), UniProt P10613); test: Inhibition of CYP51 in Candida albicans ATCC SC5314 incubated for 30 mins using eburicol as substrate in presence of NADPH by HPLC analysis
Lanosterol 14-alpha demethylase, sequence (P10613 whole entry): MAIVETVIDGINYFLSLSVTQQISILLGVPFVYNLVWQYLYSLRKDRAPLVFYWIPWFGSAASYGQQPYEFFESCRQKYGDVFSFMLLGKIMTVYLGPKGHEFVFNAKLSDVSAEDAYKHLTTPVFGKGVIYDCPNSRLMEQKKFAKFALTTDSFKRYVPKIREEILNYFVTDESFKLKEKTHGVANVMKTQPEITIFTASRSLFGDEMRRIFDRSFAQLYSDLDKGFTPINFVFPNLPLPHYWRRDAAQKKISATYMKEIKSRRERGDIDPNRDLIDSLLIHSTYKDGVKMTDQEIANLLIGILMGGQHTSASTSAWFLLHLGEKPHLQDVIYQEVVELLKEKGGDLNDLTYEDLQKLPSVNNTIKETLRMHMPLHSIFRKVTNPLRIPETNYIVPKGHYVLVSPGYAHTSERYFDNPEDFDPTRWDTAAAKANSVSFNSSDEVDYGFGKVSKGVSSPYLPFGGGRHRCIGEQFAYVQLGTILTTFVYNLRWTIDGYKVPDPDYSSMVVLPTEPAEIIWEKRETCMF

Candida albicans [15] = test: Induction of apoptosis in Candida albicans ATCC SC5314 cells assessed as late apoptotic cells at 8 ug/ml incubated for 72 hrs by Annexin V-FITC/PI staining based flow cytometry method (reference value: 0.12%); assay type: functional; settings: dose 8 µg/ml
Candida albicans [16] = test: Induction of apoptosis in Candida albicans ATCC SC5314 cells assessed as early apoptotic cells at 8 ug/ml incubated for 72 hrs by Annexin V-FITC/PI staining based flow cytometry method (reference value: 0.56%); assay type: functional; settings: dose 8 µg/ml
Candida albicans [17] = test: Antifungal activity against Candida albicans ATCC SC5314 assessed as change in unknown sterol level at 4 ug/ml incubated for 48 hrs by LC-MS analysis (reference value: 4.3%); assay type: functional; settings: dose 4 µg/ml

SMILES	MIC50 (Candida tropicalis) [µg/mL]	MIC50 (Nakaseomyces glabratus) [µg/mL]	MIC50 (Aspergillus fumigatus) [µg/mL]	MIC50 (Candida albicans [1]) [µg/mL]	MIC50 (Pichia kudriavzevii) [µg/mL]	also measured
CCC(C)[C@H](NC(=O)c1cccc2c1OCCO2)C(=O)Nc1ccncc1 (stereo not given in full)	0.5 (≈ 1.35 µM)	2 (≈ 5.41 µM)	4 (≈ 10.8 µM)	1 (≈ 2.71 µM)	0.5 (≈ 1.35 µM)	–
CC(C)[C@H](NC(=O)c1ccc2c(c1)OCCO2)C(=O)Nc1ccncc1	0.5 (≈ 1.41 µM)	0.5 (≈ 1.41 µM)	> 8	0.5 (≈ 1.41 µM)	0.25 (≈ 0.703 µM)	–
CC(C)[C@H](NC(=O)c1ccc2c(c1)OCCO2)C(=O)N[C@@H](Cn1ccnc1)c1ccccc1	0.125 (≈ 0.279 µM)	0.25 (≈ 0.557 µM)	4 (≈ 8.92 µM)	0.25 (≈ 0.557 µM)	0.5 (≈ 1.11 µM)	–
CCC(C)[C@H](NC(=O)c1cccc2c1OCCO2)C(=O)N[C@@H](Cn1cncn1)c1ccccc1 (stereo not given in full)	0.25 (≈ 0.539 µM)	0.5 (≈ 1.08 µM)	4 (≈ 8.63 µM)	0.125 (≈ 0.27 µM)	0.25 (≈ 0.539 µM)	–
O=C(N[C@H](Cc1ccccc1)Cn1ccnc1)c1ccc2c(c1)OCCO2	0.5 (≈ 1.38 µM)	0.25 (≈ 0.688 µM)	4 (≈ 11 µM)	0.5 (≈ 1.38 µM)	0.5 (≈ 1.38 µM)	–
O=C(N[C@@H](Cn1cncn1)c1ccccc1)c1ccc2c(c1)OCCO2	0.5 (≈ 1.43 µM)	0.125 (≈ 0.357 µM)	> 8	0.125 (≈ 0.357 µM)	0.5 (≈ 1.43 µM)	–
CCC(C)[C@H](NC(=O)c1ccc2c(c1)OCCO2)C(=O)Nc1cccnc1 (stereo not given in full)	2 (≈ 5.41 µM)	1 (≈ 2.71 µM)	4 (≈ 10.8 µM)	0.5 (≈ 1.35 µM)	1 (≈ 2.71 µM)	–
CCC(C)[C@H](NC(=O)c1ccc2c(c1)OCCO2)C(=O)N[C@@H](Cn1cncn1)c1ccccc1 (stereo not given in full)	0.25 (≈ 0.539 µM)	0.5 (≈ 1.08 µM)	4 (≈ 8.63 µM)	0.25 (≈ 0.539 µM)	0.25 (≈ 0.539 µM)	–
CCC(C)[C@H](NC(=O)c1ccc2c(c1)OCCO2)C(=O)Nc1ccncc1 (stereo not given in full)	0.5 (≈ 1.35 µM)	2 (≈ 5.41 µM)	> 8	0.5 (≈ 1.35 µM)	1 (≈ 2.71 µM)	–
CC(C)[C@H](NC(=O)c1cccc2c1OCCO2)C(=O)Nc1ccncc1	0.5 (≈ 1.41 µM)	0.5 (≈ 1.41 µM)	4 (≈ 11.3 µM)	0.5 (≈ 1.41 µM)	1 (≈ 2.81 µM)	MIC50 (Candida albicans [2]): 0.5 µg/mL (≈ 1.41 µM)
CCOC(=O)[C@@H](NC(=O)c1cccc2c1OCCO2)C(C)C	–	–	–	–	–	MIC50 (Candida albicans [2]): 16 µg/mL (≈ 52.1 µM)
O=C(N[C@H](Cc1ccccc1)Cn1ccnc1)c1cccc2c1OCCO2	0.25 (≈ 0.688 µM)	0.25 (≈ 0.688 µM)	> 8	0.5 (≈ 1.38 µM)	0.5 (≈ 1.38 µM)	MIC50 (Candida albicans [2]): 0.5 µg/mL (≈ 1.38 µM)
CC(C)[C@H](NC(=O)c1ccc2c(c1)OCCO2)C(=O)N[C@@H](Cn1cncn1)c1ccccc1	0.25 (≈ 0.556 µM)	0.5 (≈ 1.11 µM)	> 8	0.25 (≈ 0.556 µM)	0.25 (≈ 0.556 µM)	–
CC(C)[C@H](NC(=O)c1ccc2c(c1)OCCO2)C(=O)Nc1cccnc1	1 (≈ 2.81 µM)	1 (≈ 2.81 µM)	> 8	0.25 (≈ 0.703 µM)	0.5 (≈ 1.41 µM)	–
CCC(C)[C@H](NC(=O)c1cccc2c1OCCO2)C(=O)Nc1cccnc1 (stereo not given in full)	0.5 (≈ 1.35 µM)	1 (≈ 2.71 µM)	> 8	0.5 (≈ 1.35 µM)	2 (≈ 5.41 µM)	–
CCC(C)[C@H](NC(=O)c1ccc2c(c1)OCCO2)C(=O)N[C@@H](Cn1ccnc1)c1ccccc1 (stereo not given in full)	0.5 (≈ 1.08 µM)	0.125 (≈ 0.27 µM)	2 (≈ 4.32 µM)	0.125 (≈ 0.27 µM)	0.25 (≈ 0.54 µM)	MIC50 (Candida albicans [3]): 4 µg/mL (≈ 8.65 µM); MIC50 (Candida albicans [4]): 1 µg/mL (≈ 2.16 µM); MIC50 (Candida albicans [5]): 2 µg/mL (≈ 4.32 µM); MIC50 (Candida albicans [6]): 2 µg/mL (≈ 4.32 µM); MIC50 (Candida albicans [7]): 2 µg/mL (≈ 4.32 µM)
O=C(N[C@@H](Cn1cncn1)c1ccccc1)c1cccc2c1OCCO2	0.5 (≈ 1.43 µM)	1 (≈ 2.85 µM)	> 8	0.125 (≈ 0.357 µM)	0.25 (≈ 0.714 µM)	–
CCC(C)[C@H](NC(=O)c1cccc2c1OCCO2)C(=O)N[C@@H](Cn1ccnc1)c1ccccc1 (stereo not given in full)	0.25 (≈ 0.54 µM)	0.25 (≈ 0.54 µM)	> 8	0.5 (≈ 1.08 µM)	0.5 (≈ 1.08 µM)	–
O=C(NCCc1ccccc1)c1cccc2c1OCCO2	–	–	–	–	–	MIC50 (Candida albicans [2]): 8 µg/mL (≈ 28.2 µM)
CC(C)[C@H](NC(=O)c1cccc2c1OCCO2)C(=O)Nc1cccnc1	1 (≈ 2.81 µM)	1 (≈ 2.81 µM)	> 8	0.5 (≈ 1.41 µM)	0.5 (≈ 1.41 µM)	–
O=C(N[C@@H](Cn1ccnc1)c1ccccc1)c1cccc2c1OCCO2	0.5 (≈ 1.43 µM)	0.5 (≈ 1.43 µM)	> 8	0.5 (≈ 1.43 µM)	1 (≈ 2.86 µM)	–
O=C(N[C@@H](Cn1ccnc1)c1ccccc1)c1ccc2c(c1)OCCO2	0.25 (≈ 0.716 µM)	0.25 (≈ 0.716 µM)	> 8	0.25 (≈ 0.716 µM)	0.5 (≈ 1.43 µM)	–
O=C(N[C@H](Cc1ccccc1)Cn1cncn1)c1cccc2c1OCCO2	0.25 (≈ 0.686 µM)	0.5 (≈ 1.37 µM)	4 (≈ 11 µM)	0.25 (≈ 0.686 µM)	0.5 (≈ 1.37 µM)	–
OC(Cn1cncn1)(Cn1cncn1)c1ccc(F)cc1F [FLUCONAZOLE]	0.5 (≈ 1.63 µM)	0.25 (≈ 0.816 µM)	> 8	0.25 (≈ 0.816 µM)	0.5 (≈ 1.63 µM)	MIC50 (Candida albicans [3]): > 8 µg/mL; Activity (Candida albicans [8]): 21.6%; Activity (Candida albicans [9]): 40.6%; Activity (Candida albicans [10]): 18.59%; Activity (Candida albicans [11]): 76.56%; MIC50 (Candida albicans [4]): > 8 µg/mL; Activity (Candida albicans [12]): 2.7%; MIC50 (Candida albicans [5]): > 8 µg/mL; Activity (Candida albicans [13]): 29.5%; MIC50 (Candida albicans [6]): > 8 µg/mL; MIC50 (Candida albicans [7]): > 8 µg/mL; IC50 [14]: 148 nM; Activity (Candida albicans [15]): 3.02%; Activity (Candida albicans [16]): 1.83%; Activity (Candida albicans [17]): 5.6%
CC(C)[C@H](NC(=O)c1cccc2c1OCCO2)C(=O)N[C@@H](Cn1ccnc1)c1ccccc1	0.5 (≈ 1.11 µM)	0.5 (≈ 1.11 µM)	> 8	0.25 (≈ 0.557 µM)	0.25 (≈ 0.557 µM)	MIC50 (Candida albicans [2]): 0.25 µg/mL (≈ 0.557 µM)
